# In patent US10414763B2 (CANCER RESEARCH TECHNOLOGY LIMITED, priority 2014, dated 2019):
# Target: T1, full-length human PKCι (Homo sapiens, UniProt P41743)
# T1 construct: Recombinant, full-length human PKCι expressed in Sf21 insect cells is also commercially available; purchased EMD Millipore; host or cells: Sf21 insect cells (baculovirus)
# T1 sequence (P41743 1-596): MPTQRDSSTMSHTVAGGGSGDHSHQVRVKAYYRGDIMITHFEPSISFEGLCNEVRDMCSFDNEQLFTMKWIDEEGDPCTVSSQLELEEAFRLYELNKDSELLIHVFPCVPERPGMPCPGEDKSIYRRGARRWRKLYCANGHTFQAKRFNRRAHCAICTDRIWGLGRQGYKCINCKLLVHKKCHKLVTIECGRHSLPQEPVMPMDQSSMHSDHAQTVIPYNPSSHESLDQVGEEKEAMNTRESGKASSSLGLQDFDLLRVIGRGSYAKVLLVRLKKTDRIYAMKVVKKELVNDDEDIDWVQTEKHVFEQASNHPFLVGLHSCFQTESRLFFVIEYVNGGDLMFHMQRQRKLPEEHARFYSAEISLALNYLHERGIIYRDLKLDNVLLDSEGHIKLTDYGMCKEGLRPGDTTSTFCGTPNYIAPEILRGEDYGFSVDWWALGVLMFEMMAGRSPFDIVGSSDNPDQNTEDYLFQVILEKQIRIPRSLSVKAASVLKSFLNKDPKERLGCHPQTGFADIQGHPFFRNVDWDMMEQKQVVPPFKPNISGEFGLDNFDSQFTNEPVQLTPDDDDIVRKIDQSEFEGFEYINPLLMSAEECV
# Experiment: PKCι IC50 IMAP fluorescence polarisation assay, full-length enzyme, 150 μM ATP
# Assay type: biochemical
# Settings: read-out: IC50 in IMAP assay against full length PKCi at 150 μM ATP
# How it was run: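 IMAP fluorescence polarisation kinase assay: 15 pM baculovirus-expressed human PKCiota with 100 nM FAM-pseudosubstrate peptide and 150 μM ATP, 1 h at 25 °C. IMAP detection reagent then 2 h at 25 °C before FP measurement. Inhibition referenced to no-compound and no-enzyme controls for IC50 fitting.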
row,Structure (SMILES),IC50 [nM]
1,"CN(c1nc(-c2ccnc3[nH]c(-c4ncccc4F)cc23)nc2cncc(C3CC3)c12)[C@H]1CCNCC1(C)C [Example 384, {5-Cyclopropyl-2-[2-(3-fluoro-pyridin-2-yl)-1H-pyrrolo[2,3-b]pyridin-4-yl]-pyrido[3,4-d]pyrimidin-4-yl}-((S)-3,3-dimethyl-piperidin-4-yl)-methyl-amine]",< 100
2,"CN(c1nc(-c2ccnc3[nH]c(-c4cccnc4)cc23)nc2cncc(C3CC3)c12)[C@H]1CCNCC1(C)C [Example 385, [5-Cyclopropyl-2-(2-pyridin-3-yl-1H-pyrrolo[2,3-b]pyridin-4-yl)-pyrido[3,4-d]pyrimidin-4-yl]-((S)-3,3-dimethyl-piperidin-4-yl)-methyl-amine]",< 100
3,"CC1(C)CNCC[C@@H]1Nc1nc(-c2ccnc(Nc3ccccn3)c2)nc2cncc(C3CCC3)c12 [Example 388, {5-Cyclobutyl-2-[2-(pyridin-2-ylamino)-pyridin-4-yl]-pyrido[3,4-d]pyrimidin-4-yl}-((S)-3,3-dimethyl-piperidin-4-yl)-amine]",< 100
4,"CC1(C)CNCC[C@@H]1Nc1nc(-c2ccnc(Nc3ccc(F)cn3)c2)nc2cncc(C3CCC3)c12 [Example 389, {5-Cyclobutyl-2-[2-(5-fluoropyridin-2-ylamino)-pyridin-4-yl]-pyrido[3,4-d]pyrimidin-4-yl}-((S)-3,3-dimethyl-piperidin-4-yl)-amine]",< 100
5,"CC1(C)CNCC[C@@H]1Nc1nc(-c2ccnc(Nc3ncccc3F)c2)nc2cncc(C3CC3)c12 [Example 390, {5-Cyclopropyl-2-[2-(3-fluoro-pyridin-2-ylamino)-pyridin-4-yl]-pyrido[3,4-d]pyrimidin-4-yl}-((S)-3,3-dimethyl-piperidin-4-yl)-amine]",< 100
6,"CC1(C)CNCC[C@@H]1Nc1nc(-c2ccnc(Nc3ncc(F)cc3F)c2)nc2cncc(C3CC3)c12 [Example 391, {5-Cyclopropyl-2-[2-(3,5-difluoro-pyridin-2-ylamino)-pyridin-4-yl]-pyrido[3,4-d]pyrimidin-4-yl}-((S)-3,3-dimethyl-piperidin-4-yl)-amine]",< 100
7,"CC1(C)CNCC[C@@H]1Nc1nc(-c2ccnc(Nc3cc(F)ccn3)c2)nc2cncc(C3CC3)c12 [Example 392, {5-Cyclopropyl-2-[2-(4-fluoro-pyridin-2-ylamino)-pyridin-4-yl]-pyrido[3,4-d]pyrimidin-4-yl}-((S)-3,3-dimethyl-piperidin-4-yl)-amine]",< 100
8,"CC1(C)CNCC[C@@H]1Nc1nc(-c2ccnc(Nc3ccc(F)cn3)c2)nc2cncc(C3CC3)c12 [Example 393, {5-Cyclopropyl-2-[2-(5-fluoro-pyridin-2-ylamino)-pyridin-4-yl]-pyrido[3,4-d]pyrimidin-4-yl}-((S)-3,3-dimethyl-piperidin-4-yl)-amine]",< 100
9,"CC1(C)CNCC[C@@H]1Nc1nc(-c2ccnc3[nH]c(-c4ccccc4F)cc23)nc2cncc(C3CC3)c12 [Example 394, {5-Cyclopropyl-2-[2-(2-fluoro-phenyl)-1H-pyrrolo[2,3-b]pyridin-4-yl]-pyrido[3,4-d]pyrimidin-4-yl}-((S)-3,3-dimethyl-piperidin-4-yl)-amine]",< 100
10,"CC1(C)CNCC[C@@H]1Nc1nc(-c2ccnc3[nH]c(-c4cccnc4)cc23)nc2cncc(C3CC3)c12 [Example 395, [5-Cyclopropyl-2-(2-pyridin-3-yl-1H-pyrrolo[2,3-b]pyridin-4-yl)-pyrido[3,4-d]pyrimidin-4-yl]-((S)-3,3-dimethyl-piperidin-4-yl)-amine]",< 100
11,"CN(c1nc(-c2ccnc3[nH]c(-c4ccccc4F)cc23)nc2cncc(C3CC3)c12)[C@H]1CCNCC1(C)C [Example 396, {5-Cyclopropyl-2-[2-(2-fluoro-phenyl)-1H-pyrrolo[2,3-b]pyridin-4-yl]-pyrido[3,4-d]pyrimidin-4-yl}-((S)-3,3-dimethyl-piperidin-4-yl)-methyl-amine]",< 100
